From PMC10882719 (Frontiers in Neuroscience, 2024)
Where two headings read alike, the source gives them in different places.

Experiments:
Format in all cases: cell-based
168 GPCRs [1] = target: T1, 168 GPCRs (Homo sapiens, UniProt P34981); conditions: TRHR
T1 construct: host or cells: PathHunter cell lines
T1 sequence (P34981 1-398): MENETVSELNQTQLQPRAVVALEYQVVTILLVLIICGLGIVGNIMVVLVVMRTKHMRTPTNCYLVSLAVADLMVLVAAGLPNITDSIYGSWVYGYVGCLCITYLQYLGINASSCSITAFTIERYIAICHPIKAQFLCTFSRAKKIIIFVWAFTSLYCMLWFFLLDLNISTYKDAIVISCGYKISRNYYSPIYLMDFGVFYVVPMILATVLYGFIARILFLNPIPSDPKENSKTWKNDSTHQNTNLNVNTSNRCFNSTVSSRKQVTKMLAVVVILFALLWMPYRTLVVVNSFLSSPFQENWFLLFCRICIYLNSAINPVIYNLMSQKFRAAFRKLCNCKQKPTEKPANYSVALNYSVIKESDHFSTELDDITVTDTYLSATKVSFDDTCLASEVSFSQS

168 GPCRs [2] = target: T2, 168 GPCRs (Homo sapiens, UniProt P34998)
T2 construct: host or cells: PathHunter cell lines
T2 sequence (P34998 24-415): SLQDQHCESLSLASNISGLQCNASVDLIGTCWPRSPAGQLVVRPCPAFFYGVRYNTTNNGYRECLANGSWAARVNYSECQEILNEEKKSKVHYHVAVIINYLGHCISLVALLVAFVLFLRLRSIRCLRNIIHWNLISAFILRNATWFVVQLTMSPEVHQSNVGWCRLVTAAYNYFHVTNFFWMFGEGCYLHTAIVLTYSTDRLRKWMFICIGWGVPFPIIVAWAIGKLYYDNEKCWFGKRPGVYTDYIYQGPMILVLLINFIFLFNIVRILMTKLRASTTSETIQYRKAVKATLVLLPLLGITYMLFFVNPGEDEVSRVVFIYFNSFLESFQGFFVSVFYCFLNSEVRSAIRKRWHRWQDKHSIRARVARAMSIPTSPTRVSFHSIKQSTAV

168 GPCRs [3] = target: T3, 168 GPCRs (Homo sapiens, UniProt P35367)
T3 construct: host or cells: PathHunter cell lines

168 GPCRs [4] = target: T4, 168 GPCRs (Homo sapiens, UniProt Q96P65)
T4 construct: host or cells: PathHunter cell lines
T4 sequence (Q96P65 1-431): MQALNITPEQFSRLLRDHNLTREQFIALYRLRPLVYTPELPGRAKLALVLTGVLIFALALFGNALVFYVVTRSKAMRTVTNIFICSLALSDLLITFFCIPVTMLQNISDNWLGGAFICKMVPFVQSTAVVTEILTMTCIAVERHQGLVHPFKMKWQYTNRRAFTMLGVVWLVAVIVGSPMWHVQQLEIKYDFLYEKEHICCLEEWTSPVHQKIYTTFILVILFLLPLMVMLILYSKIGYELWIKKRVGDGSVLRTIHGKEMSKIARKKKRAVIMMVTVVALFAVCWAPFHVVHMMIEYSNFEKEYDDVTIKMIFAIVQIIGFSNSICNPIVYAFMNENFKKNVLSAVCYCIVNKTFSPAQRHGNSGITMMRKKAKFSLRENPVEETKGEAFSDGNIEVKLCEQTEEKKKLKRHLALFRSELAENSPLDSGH

168 GPCRs [5] = target: T5, 168 GPCRs (Homo sapiens, UniProt Q99500)
T5 construct: host or cells: PathHunter cell lines

168 GPCRs [6] = target: T6, 168 GPCRs (Homo sapiens, UniProt Q9NSD7); conditions: RXFP3
T6 construct: host or cells: PathHunter cell lines
T6 sequence (Q9NSD7 1-469): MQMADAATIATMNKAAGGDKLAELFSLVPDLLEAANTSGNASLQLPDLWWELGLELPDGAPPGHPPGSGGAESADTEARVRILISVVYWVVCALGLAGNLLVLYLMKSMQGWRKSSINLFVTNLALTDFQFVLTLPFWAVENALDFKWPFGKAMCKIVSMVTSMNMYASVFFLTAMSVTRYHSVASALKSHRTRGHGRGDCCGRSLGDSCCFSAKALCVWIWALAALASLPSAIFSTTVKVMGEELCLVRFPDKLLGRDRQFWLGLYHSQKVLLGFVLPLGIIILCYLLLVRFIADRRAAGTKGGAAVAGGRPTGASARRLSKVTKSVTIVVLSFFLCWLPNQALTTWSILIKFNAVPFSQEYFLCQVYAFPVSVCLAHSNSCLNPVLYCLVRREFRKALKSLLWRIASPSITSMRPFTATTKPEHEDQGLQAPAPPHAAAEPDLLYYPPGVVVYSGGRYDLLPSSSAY

168 GPCRs [7] = tested on: 168 GPCRs

T3 sequence (P35367 whole entry): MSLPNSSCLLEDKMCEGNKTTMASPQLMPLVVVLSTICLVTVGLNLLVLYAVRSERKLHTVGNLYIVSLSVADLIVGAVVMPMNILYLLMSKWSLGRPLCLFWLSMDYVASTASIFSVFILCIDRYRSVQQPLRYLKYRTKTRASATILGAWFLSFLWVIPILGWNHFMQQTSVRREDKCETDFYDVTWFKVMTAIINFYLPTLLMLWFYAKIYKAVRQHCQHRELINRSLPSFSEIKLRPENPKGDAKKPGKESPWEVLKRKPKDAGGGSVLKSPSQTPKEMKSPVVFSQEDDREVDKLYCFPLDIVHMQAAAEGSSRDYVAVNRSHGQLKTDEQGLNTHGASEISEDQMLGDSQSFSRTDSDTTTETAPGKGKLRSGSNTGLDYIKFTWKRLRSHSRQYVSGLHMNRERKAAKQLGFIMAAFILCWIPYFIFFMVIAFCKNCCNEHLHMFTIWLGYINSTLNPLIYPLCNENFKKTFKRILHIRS
T5 sequence (Q99500 whole entry): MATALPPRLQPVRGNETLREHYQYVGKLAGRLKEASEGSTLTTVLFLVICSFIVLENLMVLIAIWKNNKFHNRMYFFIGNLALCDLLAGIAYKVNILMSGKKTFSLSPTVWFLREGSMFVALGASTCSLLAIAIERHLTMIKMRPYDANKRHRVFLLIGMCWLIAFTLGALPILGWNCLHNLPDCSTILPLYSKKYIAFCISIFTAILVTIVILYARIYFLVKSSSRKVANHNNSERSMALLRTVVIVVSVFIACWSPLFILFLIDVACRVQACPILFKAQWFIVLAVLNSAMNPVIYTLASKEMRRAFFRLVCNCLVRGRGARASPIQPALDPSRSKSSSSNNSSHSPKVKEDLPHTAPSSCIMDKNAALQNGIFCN

Row | Compound | % Agonist Activity (168 GPCRs [1]; Conc 1 uM) [%] | % Antagonist Activity (168 GPCRs [1]; Conc 1 uM) [%] | % Agonist Activity (168 GPCRs [1]; Conc 10 uM) [%] | % Antagonist Activity (168 GPCRs [1]; Conc 10 uM) [%] | % Agonist Activity (168 GPCRs [2]; CRHR1, 1 uM) [%] | % Antagonist Activity (168 GPCRs [2]; CRHR1, 1 uM) [%] | % Agonist Activity (168 GPCRs [2]; CRHR1, 10 uM) [%] | % Antagonist Activity (168 GPCRs [2]; CRHR1, 10 uM) [%] | % Agonist Activity (168 GPCRs [3]; HRH1, 1 uM) [%] | % Antagonist Activity (168 GPCRs [3]; HRH1, 1 uM) [%] | % Agonist Activity (168 GPCRs [3]; HRH1, 10 uM) [%] | % Antagonist Activity (168 GPCRs [3]; HRH1, 10 uM) [%] | % Agonist Activity (168 GPCRs [4]; GPR103, 1 uM) [%] | % Antagonist Activity (168 GPCRs [4]; GPR103, 1 uM) [%] | % Agonist Activity (168 GPCRs [4]; GPR103, 10 uM) [%] | % Antagonist Activity (168 GPCRs [4]; GPR103, 10 uM) [%] | % Agonist Activity (168 GPCRs [5]; EDG3, 1 uM) [%] | % Antagonist Activity (168 GPCRs [5]; EDG3, 1 uM) [%] | % Agonist Activity (168 GPCRs [5]; EDG3, 10 uM) [%] | % Antagonist Activity (168 GPCRs [5]; EDG3, 10 uM) [%] | further results
1 | CNC(C)Cc1ccc2c(c1)OCO2 (stereo not drawn) [MDMA, 3,4-Methylenedioxy methamphetamine, reference compound] | -0.4 | 16.2 | -0.1 | 9.9 | 0.7 | -1.7 | 0.2 | 0.2 | 3.1 | 13.7 | 3.8 | 38.4 | -4.2 | -15.2 | -6.5 | -17.1 | -1.7 | 8.8 | -1.1 | 11 | % Agonist Activity (168 GPCRs [6]; Conc 1 uM): -5.2%; % Antagonist Activity (168 GPCRs [6]; Conc 1 uM): 15.3%; % Agonist Activity (168 GPCRs [6]; Conc 10 uM): -0.7%; % Antagonist Activity (168 GPCRs [6]; Conc 10 uM): 19.1%; % Agonist Activity (168 GPCRs [7]; DRD2S, 1 uM): 1.6%; % Antagonist Activity (168 GPCRs [7]; DRD2S, 1 uM): 5.8%; % Agonist Activity (168 GPCRs [7]; DRD2S, 10 uM): 1.9%; % Antagonist Activity (168 GPCRs [7]; DRD2S, 10 uM): 14.7%; % Agonist Activity (168 GPCRs [7]; NPSR1B, Conc 1 uM): -3.8%; % Antagonist Activity (168 GPCRs [7]; NPSR1B, Conc 1 uM): 4.3%; % Agonist Activity (168 GPCRs [7]; NPSR1B, Conc 10 uM): -5.1%; % Antagonist Activity (168 GPCRs [7]; NPSR1B, Conc 10 uM): 5%
2 | CNC(C)C(=O)c1ccc2c(c1)OCO2 (stereo not drawn) [methylone] | -2 | -7.2 | -2.2 | 2.8 | 1.4 | 1.3 | 1.1 | 0.6 | 3 | -18 | 2.5 | -2.2 | 0.8 | 4.1 | 3.1 | 7 | -9.4 | 25.8 | -8.6 | 13.6 | % Agonist Activity (168 GPCRs [6]; Conc 1 uM): -7.6%; % Antagonist Activity (168 GPCRs [6]; Conc 1 uM): 23.1%; % Agonist Activity (168 GPCRs [6]; Conc 10 uM): -8.7%; % Antagonist Activity (168 GPCRs [6]; Conc 10 uM): 32.6%; Agonist activity at any of 168 GPCRs (168 GPCRs [7]; 1 or 10 μM, threshold 30% activity): no significant agonist activity; Antagonist activity at any GPCR (168 GPCRs [7]; 1 or 10 μM, threshold 50% inhibition): no significant antagonist activity; % Agonist Activity (168 GPCRs [7]; DRD2S, 1 uM): 0%; % Antagonist Activity (168 GPCRs [7]; DRD2S, 1 uM): 3.6%; % Agonist Activity (168 GPCRs [7]; DRD2S, 10 uM): 0.6%; % Antagonist Activity (168 GPCRs [7]; DRD2S, 10 uM): -11.6%; % Agonist Activity (168 GPCRs [7]; NPSR1B, Conc 1 uM): -1.3%; % Antagonist Activity (168 GPCRs [7]; NPSR1B, Conc 1 uM): -10.6%; % Agonist Activity (168 GPCRs [7]; NPSR1B, Conc 10 uM): 4.8%; % Antagonist Activity (168 GPCRs [7]; NPSR1B, Conc 10 uM): -7.6%
